Data from patent US20060035925A1, “SUBSTITUTED 4H-CHROMENES AND ANALOGS AS ACTIVATORS OF CASPASES AND INDUCERS OF APOPTOSIS AND THE USE THEREOF” (Cytovia, Inc., priority 1999, published 2006).
Read-outs that look alike come from different tables or passages of the source.

Experiments:
[1] = tested on: Human breast cancer cell line T-47D; assay: Caspase cascade activation assay (N-(Ac-DEVD)-N'-ethoxycarbonyl-R110 fluorogenic substrate) in T-47D cells; type: cell-based; settings: for Caspase activity (Ratio) T-47D: 24 h incubation with compound, ratio of net RFU (T=3 h) of test compound to control
Method: (§1) Human breast cancer cell lines T-47D and ZR-75-1 were grown according to media component mixtures designated by American Type Culture Collection +10% FCS (Invitrogen Corporation), in a 5% CO2-95% humidity incubator at 37° C. T-47D and ZR-75-1 cells were maintained at a cell density between 30 and 80% confluency at a cell density of 0.1 to 0.6×10^6 cells/ml. Cells were harvested at 600×g and resuspended at 0.65×10^6 cells/mL into appropriate media +10% FCS. An aliquot of 45 μl of cells was added to a well of a 96-well microtiter plate containing 5 μl of a 10% DMSO in RPMI-1640 media solution containing 0.16 to 10 μM of 2-amino-3-cyano-4-(3-bromo-4,5-dimethoxyphenyl)-4H-indolo[7,6-b]pyran (Example 42) or other test compound (0.016 to 1 μM final). An aliquot of 45 μl of cells was added to a well of a 96-well microtiter plate containing 5 μl of a 10% DMSO in RPMI-1640 media solution without test compound as the control sample. The samples were mixed by agitation and then incubated at 37° C. for 24 h in a 5% CO2-95% humidity incubator. After incubation, the samples were removed from the incubator and 50 μl of a solution containing 20 μM of N-(Ac-DEVD)-N′-ethoxycarbonyl-R110 (SEQ ID NO:1) fluorogenic substrate (Cytovia, Inc.; WO99/18856), 20% sucrose (Sigma), 20 mM DTT (Sigma), 200 mM NaCl (Sigma), 40 mM Na PIPES buffer pH 7.2 (Sigma), and 500 μg/ml lysolecithin (Calbiochem) was added. The samples were mixed by agitation and incubated at room temperature. Using a fluorescent plate reader (Model 1420 Wallac Instruments), an initial reading (T=0) was made approximately 1-2 min after addition of the substrate solution, employing excitation at 485 nm and emission at 530 nm, to determine the background fluorescence of the control sample. After the 3 h incubation, the samples were read for fluorescence as above (T=3 h).
(§2) The Relative Fluorescence Unit values (RFU) were used to calculate the sample readings as follows: RFU(T=3h)−Control RFU(T=0)=Net RFU(T=3h)
(§3) The activity of caspase cascade activation was determined by the ratio of the net RFU value for 2-amino-3-cyano-4-(3-bromo-4,5-dimethoxyphenyl)-4H-indolo[7,6-b]pyran or other test compound to that of control samples. The EC50 (nM) was determined by a sigmoidal dose-response calculation (Prism 2.0, GraphPad Software Inc.).

[2] = tested on: Human breast cancer cell line ZR-75-1; assay: Caspase cascade activation assay (N-(Ac-DEVD)-N'-ethoxycarbonyl-R110 fluorogenic substrate) in ZR-75-1 cells; type: cell-based; settings: for Caspase activity (Ratio) ZR-75-1: 24 h incubation with compound, ratio of net RFU (T=3 h) of test compound to control
Method: as §1, §2, §3

[3] = Homo sapiens, T47D, 24 h, 24 h incubation, sigmoidal dose-response, read-out: Caspase potency EC50 (nM) T-47D
[4] = Homo sapiens, ZR-75-1, 24 h, ZR-75-1 cells, 24 h incubation, sigmoidal dose-response, read-out: Caspase potency EC50 (nM) ZR-75-1
[5] = 24 h incubation, sigmoidal dose-response, read-out: Caspase potency EC50 (nM) T-47D
[6] = ZR-75-1 cells, 24 h incubation, sigmoidal dose-response, read-out: Caspase potency EC50 (nM) ZR-75-1

Row | Molecule | EC50 [1, 3] [nM] | EC50 [2, 4] [nM] | EC50 ([1]; Homo sapiens, T47D, additional compounds, Table II, read-out: Caspase potency EC50 (nM) T-47D, Table II) [nM] | EC50 ([2]; Homo sapiens, ZR-75-1, ZR-75-1 cells, additional compounds, Table II, read-out: Caspase potency EC50 (nM) ZR-75-1, Table II) [nM] | EC50 [1, 5] [nM] | EC50 [2, 6] [nM] | Caspase activity (Ratio) T-47D [1] | Caspase activity (Ratio) ZR-75-1 ([2]; ZR-75-1 cells) | Caspase activity (Ratio) T-47D, Table II ([1]; additional compounds, Table II) | Caspase activity (Ratio) ZR-75-1, Table II ([2]; ZR-75-1 cells, additional compounds, Table II)
1 | COc1cc(C2C(C#N)=C(N)Oc3c2ccc(N)c3N)cc(Br)c1OC (stereo not drawn) [Example 45, 3-Cyano-2,7,8-triamino-4-(3-bromo-4,5-dimethoxyphenyl)-4H-chromene] | 41.8 | 35.4 |  |  |  |  | 6.0 | 11.9 |  | 
2 | COc1cc(OC)cc(C2C(C#N)=C(N)Oc3cc(OC)ccc32)c1 (stereo not drawn) [Example 12, 2-Amino-3-cyano-7-methoxy-4-(3,5-dimethoxyphenyl)-4H-chromene] | 14 | 9 |  |  |  |  | 6.1 | 6.7 |  | 
3 | N#CC1=C(N)OC2C3=CC=NC3=CC=C2C1c1cc(Cl)cc(Cl)c1 (stereo not drawn) [Example 2F, 2-Amino-3-cyano-4-(3,5-dichlorophenyl)-4H-indolo[4,5-b]pyran] | 44 | 26 |  |  |  |  | 4.7 | 4.4 |  | 
4 | N#CC1=C(N)OC2C3=CC=NC3=CC=C2C1c1cccc(F)c1 (stereo not drawn) [Example 2L, 2-Amino-3-cyano-4-(3-fluorophenyl)-4H-indolo[4,5-b]pyran] | 63 | 41 |  |  |  |  | 4.5 | 7.4 |  | 
5 | COc1cc(C2C(C#N)=C(N)Oc3c2ccc(N)c3C)cc(Br)c1OC (stereo not drawn) [Example 2H, 2-Amino-3-cyano-7-amino-8-methyl-4-(3-bromo-4,5-dimethoxyphenyl)-4H-chromene] | 29 | 16 |  |  |  |  | 5.5 | 3.9 |  | 
6 | COc1ccc2c(c1)OC(N)=C(C#N)C2c1cc(F)cc(F)c1 (stereo not drawn) [Example 2J, 2-Amino-3-cyano-7-methoxy-4-(3,5-difluorophenyl)-4H-chromene] | 34 | 21 |  |  |  |  | 5.0 | 7.4 |  | 
7 | CCNc1ccc2c(c1)OC(N)=C(C#N)C2c1cccc(Cl)c1 (stereo not drawn) [Example 8, 2-Amino-3-cyano-7-ethylamino-4-(3-chlorophenyl)-4H-chromene] | 126 | 62 |  |  |  |  | 8.5 | 10.1 |  | 
8 | N#CC1=C(N)Oc2cc(N)ccc2C1c1ccccc1 (stereo not drawn) [2,7-Diamino-3-cyano-4-phenyl-4H-chromene] |  |  | 5630 | 2880 |  |  |  |  | 6.3 | 8.6
9 | 2-Amino-4-(3-bromo-4,5-dimethoxyphenyl)-3-cyano-9-methyl-4H-imidazo[4,5-b]chromene [Example 75] |  |  |  |  | 345 | 146 | 6.3 | 3.4 |  | 
10 | COc1ccc2c(c1)OC(N)=C(C#N)C2c1cc(Cl)cc(Cl)c1 (stereo not drawn) [Example 2E, 2-Amino-3-cyano-7-methoxy-4-(3,5-dichlorophenyl)-4H-chromene] | 39 | 29 |  |  |  |  | 4.1 | 4.4 |  | 
11 | N#CC1=C(N)Oc2cc(N)ccc2C1c1cccc(Br)c1 (stereo not drawn) [Example 19, 2,7-Diamino-3-cyano-4-(3-bromophenyl)-4H-chromene] | 274 | 206 |  |  |  |  | 5.9 | 9.2 |  | 

The next lines start with results.

Row | EC50 [1, 3] [nM] | EC50 [2, 4] [nM] | EC50 ([1]; Homo sapiens, T47D, additional compounds, Table II, read-out: Caspase potency EC50 (nM) T-47D, Table II) [nM] | EC50 ([2]; Homo sapiens, ZR-75-1, ZR-75-1 cells, additional compounds, Table II, read-out: Caspase potency EC50 (nM) ZR-75-1, Table II) [nM] | EC50 [1, 5] [nM] | EC50 [2, 6] [nM] | Molecule | Caspase activity (Ratio) T-47D [1] | Caspase activity (Ratio) ZR-75-1 ([2]; ZR-75-1 cells) | Caspase activity (Ratio) T-47D, Table II ([1]; additional compounds, Table II) | Caspase activity (Ratio) ZR-75-1, Table II ([2]; ZR-75-1 cells, additional compounds, Table II)
12 | 13.9 | 6.6 |  |  |  |  | COc1cncc(C2C3=CC=C4N=CC=C4C3OC(N)=C2C#N)c1 (stereo not drawn) [Example 41, 2-Amino-3-cyano-4-(5-methoxy-pyridin-3-yl)-4H-indolo[4,5-b]pyran] | 6.8 | 7.2 |  | 
13 | 24 | 14 |  |  |  |  | COc1ccc2c(c1)OC(N)=C(C#N)C2c1cncc(C)c1 (stereo not drawn) [Example 30, 2-Amino-3-cyano-7-methoxy-4-(5-methyl-3-pyridyl)-4H-chromene] | 7.5 | 13.2 |  | 
14 | 697 | 562 |  |  |  |  | COc1cccc(C2C(C#N)=C(N)Oc3cc(N)ccc32)c1 (stereo not drawn) [Example 21, 2,7-Diamino-3-cyano-4-(3-methoxyphenyl)-4H-chromene] | 6.0 | 9.2 |  | 
15 | > 10000 | > 10000 |  |  |  |  | N#CC1=C(N)OC2C3=CC=NC3=CC=C2C1c1cnc2ccccc2n1 (stereo not drawn) [Example 59, 2-Amino-3-cyano-4-(quinoxalin-2-yl)-4H-indolo[4,5-b]pyran] | 1.1 | 1.2 |  | 
16 | 90.7 | 45.3 |  |  |  |  | COc1cccc(C2C(C#N)=C(N)Sc3cc(OC)ccc32)c1 (stereo not drawn) [Example 70, 2-Amino-3-cyano-7-methoxy-4-(3-methoxyphenyl)-4H-thiochromene] | 9.1 | 6.6 |  | 
17 | 17 | 4 |  |  |  |  | CCNc1ccc2c(c1)OC(N)=C(C#N)C2c1cncc(Br)c1 (stereo not drawn) [Example 32, 2-Amino-3-cyano-4-(5-bromo-3-pyridyl)-7-ethylamino-4H-chromene] | 7.2 | 9.5 |  | 
18 |  |  |  |  | 209 | 103 | COc1cc(C2C(C#N)=C(N)Oc3c2ccc2nccnc32)cc(Br)c1OC (stereo not drawn) [Example 79, 2-Amino-3-cyano-4-(3-bromo-4,5-dimethoxy-phenyl)-4H-pyrazino [2,3-h]chromene] | 8.3 | 10.2 |  | 
19 | 2900 | 1630 |  |  |  |  | Cc1cncc(C2C3=CC=C4C=CN=C4C3OC(N)=C2C#N)n1 (stereo not drawn) [Example 61, 2-Amino-3-cyano-4-(6-methyl-pyrazin-2-yl)-4H-indolo[7,6-b]pyran] | 4.1 | 7.0 |  | 
20 | 15.3 | 4 |  |  |  |  | Cc1cncc(C2C3=CC=C4C=CN=C4C3OC(N)=C2C#N)c1 (stereo not drawn) [Example 55, 2-Amino-3-cyano-4-(5-methyl-pyridin-3-yl)-4H-indolo[7,6-b]pyran] | 7.4 | 7.2 |  | 
21 | 27.4 | 16.9 |  |  |  |  | COc1cncc(C2C(C#N)=C(N)Oc3cc(OC)ccc32)c1 (stereo not drawn) [Example 40, 2-Amino-3-cyano-7-methoxy-4-(5-methoxy-pyridin-3-yl)-4H-chromene] | 7.9 | 8.9 |  | 
22 |  |  |  |  | 28.8 | 13.2 | COc1cc(C2C(C#N)=C(N)Oc3c2ccc2[nH]cnc32)cc(Br)c1OC (stereo not drawn) [Example 64, 2-Amino-3-cyano-4-(3-bromo-4,5-dimethoxy-phenyl)-4H-imidazo[4,5-h]chromene] | 8.0 | 4.8 |  | 
23 | 30 | 25 |  |  |  |  | COc1cc(C2C3=CC=C4C=CN=C4C3OC(N)=C2C#N)cc(Br)c1OC (stereo not drawn) [Example 42, 2-Amino-3-cyano-4-(3-bromo-4,5-dimethoxyphenyl)-4H-indolo[7,6-b]pyran] | 7.6 | 13.1 |  | 
24 | 252 | 157 |  |  |  |  | N#CC1=C(N)OC2C3=CC=NC3=CC=C2C1c1ccccc1 (stereo not drawn) [Example 56, 2-Amino-3-cyano-4-phenyl-4H-indolo[4,5-b]pyran] | 8.3 | 7.7 |  | 
